Source: PMC7818921, “Synthesis and biological evaluation of heterocyclic 1,2,4-triazole scaffolds as promising pharmacological agents” (BMC Chemistry, 2021)
Converted amounts (≈) assume the structure as drawn. Where two headings read alike, the source gives them in different places.

What was measured:
Bacillus subtilis = experiment: In vitro antimicrobial screening, tube dilution method; type: cell-based; settings: B. substilis, Gram +ve, nutrient broth, 37 ± 1 °C, 24 h, read-out: Minimum inhibitory concentration
Method: (§1) The in vitro antimicrobial screening of the synthesized 1,2,4-triazole derivatives (T1–T20) in μM was determined against Gram-positive Bacillus subtilis, […], Gram-negative Escherichia coli bacterium and fungal strains Candida albicans and Aspergillus niger by tube dilution method using ciprofloxacin, amoxycillin (antibacterial) and fluconazole (antifungal) as reference drugs. DMSO was used to dissolve the reference and sample derivatives (T1–T20). Dilutions were prepared in nutrient broth (I.P.) for bacterial (incubated at 37 ± 1 °C for 24 h) and Sabouraud dextrose broth (I.P.) for fungal species (37 ± 1 °C for 48 h for C. albicans) and (25 ± 1 °C for 7 days for A. niger) (Table 3, Figs. 4 and 5).

Escherichia coli = experiment: as above; type: cell-based; settings: Escherichia coli; E. coli, Gram −ve; nutrient broth, 37 ± 1 °C, 24 h; read-out: Minimum inhibitory concentration
Method: as §1

Pseudomonas aeruginosa = experiment: as above; type: cell-based; settings: P. aeruginosa, Gram −ve, nutrient broth, 37 ± 1 °C, 24 h, read-out: Minimum inhibitory concentration
Method: as §1

[1] = test system: Gram-positive (B. subtilis), Gram-negative (P. aeruginosa and E. coli) bacterial strains; experiment: Tube dilution method, MIC of antibacterial standards quoted without strain; type: cell-based; settings: antibacterial standard, strain not given
Aspergillus niger = experiment: In vitro antifungal screening, tube dilution method; type: cell-based; settings: A. niger, Sabouraud dextrose broth, 25 ± 1 °C, 7 days, read-out: Minimum inhibitory concentration
Method: as §1

Candida albicans = experiment: as above; type: cell-based; settings: Candida albicans; C. albican; Sabouraud dextrose broth, 37 ± 1 °C, 48 h; read-out: Minimum inhibitory concentration
Method: as §1

[2] = DPPH free radical scavenging activity; settings: for IC50: DPPH antioxidant; for % inhibition: DPPH
Method: In the DPPH free radical scavenging activity, compounds (T1–T20) were evaluated for their free radical scavenging activity with ascorbic acid as standard compound. The scavenging effect increased with the increasing concentrations of sample compounds. DPPH is relatively stable nitrogen centered free radical that easily accepts an electron or hydrogen radical to become a stable diamagnetic molecule. DPPH radicals react with suitable reducing agents as a result of which the electrons become paired off forming the corresponding hydrazine. The solution therefore loses colour stoichometrically depending on the number of electrons taken up. […] The sample solutions were incubated for 30 min at room temperature in dark place and after then absorbance was recorded against the blank solution at 517 nm. The relative percent of DPPH scavenging activity was calculated according to the following equation: I%=Acontrol-Asample/Acontrol×100,
where Acontrol is the absorbance of the control, Asample is the absorbance of the test compound.

Jack Bean Urease = Jack Bean Urease (Canavalia ensiformis, UniProt P07374); experiment: biochemical
Method: Urease inhibitory potential for each synthesisized compound (T1–T20) was evaluated using Jack Bean Urease by Indophenol method (Table 5, Figs. 9, 10, 11). 250 µl of jack bean urease (4U) was mixed with 250 µl of different synthesized test compounds and standard of different concentrations [dissolved in DMSO/H2O mixture (1:1 v/v)]. The mixture was pre-incubated for 1 h at 37 °C in test tubes. 2 ml of 100 mM phosphate buffer (pH 6.8) containing 500 mM urea and 0.002% phenol red as an indicator were added in sample test tubes after pre incubation and again incubated at room temperature. Absorbance of reaction mixture was recorded by ELISA at 570 nm. Ammonium carbonate increased the pH of phosphate buffer from 6.8 to 7.7 which was produced from urea by urease enzyme and the end peak was measured by the colour of phenol red indicator [16].
The percentage inhibition of urease enzyme was calculated by using following formula: I%=Acontrol-Asample/Acontrol×100,
where Acontrol is the absorbance of the control; Asample is the absorbance of the test compound.

[3] = test system: HCT116 (human colon cancer cells); experiment: Anticancer evaluation, SRB assay; type: cell-based; settings: Homo sapiens, HCT-116
Method: HCT116 (human colon cancer cells) were seeded at 2500 cells/well (96 well plate), allowed to attach overnight, exposed to the respective compounds for 72 h and subjected to SRB assay (570 nm). Data represent mean IC50 of at least triplicates. The compounds were all dissolved in DMSO as stock of 100 mg/ml. […] The highest concentration of each compound tested (100 μg/ml) contained only 0.1% DMSO.

[4] = HCT116, 72 h, SRB, mean of at least triplicates

Jack Bean Urease, sequence (P07374 whole entry, looked up): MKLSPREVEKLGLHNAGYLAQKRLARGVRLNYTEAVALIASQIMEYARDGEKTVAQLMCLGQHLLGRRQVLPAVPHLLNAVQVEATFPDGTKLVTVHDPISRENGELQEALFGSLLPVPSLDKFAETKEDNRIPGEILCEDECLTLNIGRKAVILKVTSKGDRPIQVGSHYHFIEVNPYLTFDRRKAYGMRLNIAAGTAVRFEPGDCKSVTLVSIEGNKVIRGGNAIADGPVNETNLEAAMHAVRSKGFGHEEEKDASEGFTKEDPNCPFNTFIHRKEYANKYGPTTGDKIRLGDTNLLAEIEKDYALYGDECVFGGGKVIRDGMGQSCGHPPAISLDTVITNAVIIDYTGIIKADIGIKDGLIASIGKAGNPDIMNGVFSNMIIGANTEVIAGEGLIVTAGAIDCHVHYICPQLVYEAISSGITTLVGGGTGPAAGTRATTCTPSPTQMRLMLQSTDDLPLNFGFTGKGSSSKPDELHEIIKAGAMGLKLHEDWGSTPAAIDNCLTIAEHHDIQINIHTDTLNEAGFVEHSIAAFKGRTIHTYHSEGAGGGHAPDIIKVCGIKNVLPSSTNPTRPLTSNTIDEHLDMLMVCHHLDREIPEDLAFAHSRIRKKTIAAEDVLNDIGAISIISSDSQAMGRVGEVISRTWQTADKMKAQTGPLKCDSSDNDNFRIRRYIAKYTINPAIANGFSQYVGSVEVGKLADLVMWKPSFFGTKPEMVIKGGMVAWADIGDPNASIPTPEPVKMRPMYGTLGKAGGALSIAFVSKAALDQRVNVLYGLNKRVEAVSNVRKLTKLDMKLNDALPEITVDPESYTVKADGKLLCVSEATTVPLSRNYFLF

| Structure (SMILES) | MIC (Bacillus subtilis; Bacillus subtilis) [µM] | MIC (Escherichia coli) [µM] | MIC (Pseudomonas aeruginosa; Pseudomonas aeruginosa) [µM] | MIC (Aspergillus niger; Aspergillus niger, 168 h) [µM] | MIC (Candida albicans) [µM] | IC50 [2] [µg/mL] | % inhibition ([2]; 25 µg/ml) [%] | % inhibition ([2]; 50 µg/ml) [%] | % inhibition ([2]; 75 µg/ml) [%] | % inhibition ([2]; 100 µg/ml) [%] | IC50 (Jack Bean Urease) [µM] | inhibition at 25 µg/mL (Jack Bean Urease) [%] | inhibition at 50 µg/mL (Jack Bean Urease) [%] | inhibition at 75 µg/mL (Jack Bean Urease) [%] | inhibition at 100 µg/mL (Jack Bean Urease) [%] | IC50 [3, 4] [µM] | melting point [°C] | other results |
| --- | --- | --- | --- | --- | --- | --- | --- | --- | --- | --- | --- | --- | --- | --- | --- | --- | --- | --- |
| O=C(O)c1cn(C2CC2)c2cc(N3CCNCC3)c(F)cc2c1=O [Ciprofloxacin, reference compound] | 18 (≈ 5.96 µg/mL) | 37.7 (≈ 12.5 µg/mL) | 18 (≈ 5.96 µg/mL) |  |  |  |  |  |  |  |  |  |  |  |  |  |  | MIC (Bacillus subtilis): 18.0 µM (≈ 5.96 µg/mL); MIC (Pseudomonas aeruginosa): 18.0 µM (≈ 5.96 µg/mL); MIC [1]: 18.1 µM |
| CC1(C)S[C@@H]2[C@H](NC(=O)[C@H](N)c3ccc(O)cc3)C(=O)N2[C@H]1C(=O)O [Amoxicillin, reference compound] | 17.1 (≈ 6.25 µg/mL) | 17.1 (≈ 6.25 µg/mL) | 17.1 (≈ 6.25 µg/mL) |  |  |  |  |  |  |  |  |  |  |  |  |  |  | MIC [1]: 17.1 µM |
| CCCCCCCCCCCCCCCc1nnc(S)n1N=Cc1cccc([N+](=O)[O-])c1 [Compound T16] | 109 (≈ 50 µg/mL) | 218 (≈ 100 µg/mL) | 109 (≈ 50 µg/mL) | 218 (≈ 100 µg/mL) | 218 (≈ 100 µg/mL) | 41.30 (≈ 89.8 µM) | 43.65 | 51.45 | 67.26 | 81.76 | 115 | 45.8 | 49.1 | 53.9 | 59.1 | 169 | 199 to 202 |  |
| CCCCCCCCCCCCCCCc1nnc(S)n1N=Cc1ccc(OC)c(OC)c1 [Compound T4] | 52.6 (≈ 25 µg/mL) | 105 (≈ 50 µg/mL) | 52.6 (≈ 25 µg/mL) | 105 (≈ 50 µg/mL) | 52.6 (≈ 25 µg/mL) | 37.50 (≈ 79 µM) | 38.45 | 58.34 | 88.61 | 98.89 | 106 | 35.5 | 49.5 | 63.7 | 79.5 | 7.79 | 188 to 191 |  |
| CCCCCCCCCCCCCCCc1nnc(S)n1N=Cc1ccc(N(C)C)cc1 [Compound T9] | 54.6 (≈ 25 µg/mL) | 54.6 (≈ 25 µg/mL) | 27.3 (≈ 12.5 µg/mL) | 218 (≈ 100 µg/mL) | 109 (≈ 50 µg/mL) | 35.42 (≈ 77.4 µM) | 40.56 | 60.67 | 83.61 | 92.16 |  | 33.5 | 53.7 | 70.5 | 92.7 | > 218 | 198 to 201 |  |
| CCCCCCCCCCCCCCCc1nnc(S)n1N=Cc1ccc(C)cc1 [Compound T3] | 58.3 (≈ 25 µg/mL) | 117 (≈ 50 µg/mL) | 58.3 (≈ 25 µg/mL) | 117 (≈ 50 µg/mL) | 233 (≈ 100 µg/mL) | 34.38 (≈ 80.2 µM) | 43.56 | 60.12 | 75.67 | 88.98 | 126 | 28.2 | 50 | 65.9 | 79.1 | 16.6 | 190 to 193 |  |
| CCCCCCCCCCCCCCCc1nnc(S)n1N=Cc1ccc(Cl)cc1Cl [Compound T12] | 103 (≈ 50 µg/mL) | 103 (≈ 50 µg/mL) | 51.7 (≈ 25 µg/mL) | 103 (≈ 50 µg/mL) | 207 (≈ 100 µg/mL) | 39.56 (≈ 81.8 µM) | 44.45 | 51.45 | 68.56 | 70.61 | 120 | 43.6 | 46.6 | 52.6 | 61.6 | > 207 | 211 to 214 |  |
| CCCCCCCCCCCCCCCc1nnc(S)n1N=Cc1ccc([N+](=O)[O-])cc1 [Compound T17] | 54.3 (≈ 25 µg/mL) | 218 (≈ 100 µg/mL) | 218 (≈ 100 µg/mL) | 27.1 (≈ 12.5 µg/mL) | 109 (≈ 50 µg/mL) |  | 48.75 | 62.57 | 78.16 | 84.61 | 125 | 37.9 | 42.4 | 57.6 | 71.4 | > 218 | 206 to 209 |  |
| CCCCCCCCCCCCCCCc1nnc(S)n1N=Cc1ccc(OC)c(O)c1 [Compound T6] | 108 (≈ 50 µg/mL) | 54.2 (≈ 25 µg/mL) | 54.2 (≈ 25 µg/mL) | 217 (≈ 100 µg/mL) | 108 (≈ 50 µg/mL) | 45.66 (≈ 99.1 µM) | 31.67 | 53.67 | 77.78 | 92.67 | 102 | 38.5 | 50.3 | 65.6 | 80.9 | 112 | 189 to 192 | MIC (Aspergillus niger): 217.0 µM (≈ 100 µg/mL) |
| CCCCCCCCCCCCCCCc1nnc(S)n1N=Cc1ccccc1O [Compound T7] | 116 (≈ 50 µg/mL) | 116 (≈ 50 µg/mL) | 29 (≈ 12.5 µg/mL) | 232 (≈ 100 µg/mL) | 232 (≈ 100 µg/mL) | 38.54 (≈ 89.5 µM) | 46.75 | 52.56 | 60.56 | 70.41 | 121 | 24 | 46.9 | 76.1 | 91.9 | 3.25 | 181 to 184 | MIC (Pseudomonas aeruginosa): 29.0 µM (≈ 12.5 µg/mL); IC50 ([3]; HCT116, value given in dose-response figure): 1.4 µg/mL |
| CCCCCCCCCCCCCCCc1nnc(S)n1N=Cc1cccc(Cl)c1 [Compound T10] | 55.6 (≈ 25 µg/mL) | 111 (≈ 50 µg/mL) | 55.6 (≈ 25 µg/mL) | 55.6 (≈ 25 µg/mL) | 223 (≈ 100 µg/mL) | 43.57 (≈ 97 µM) | 45.56 | 51.56 | 57.57 | 62.67 | 116 | 27.9 | 46.9 | 70.9 | 89.8 | 174 | 205 to 208 |  |
